Results on 8 compounds are retold here after US11034650B2, “Compounds useful for treating a Mannheimia haemolytica or Histophilus somni infection” (Intervet Inc., priority 2016, dated 2021).

Values after ≈ are worked out from the molar mass of the structure shown. Some results are limits rather than exact numbers.

Assay type in all cases: cell-based
Assay [1] has as its system Mannheimia haemolytica MH 6357 (M7/2, reference strain, cattle infection strain). Kind of assay: MIC, broth-microdilution (CLSI VET01-A4), strain MH 6357. The note with it: Mannheimia haemolytica strain MH 6357, broth-microdilution; unit assumed. An outline of the steps: (§1)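 Broth microdilution per CLSI VET01-A4, using trays with a doubling dilution series of compound; results interpreted per CLSI VET01-S3. MIC taken as lowest concentration with no turbidity visible to the unaided eye.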
In general terms: In broth dilution the organism is exposed to a series of concentrations in liquid medium.

For assay [2], the system named is Mannheimia haemolytica MH 6374 (ATCC 33396, reference strain). Briefly: MIC, broth-microdilution (CLSI VET01-A4), strain MH 6374. Conditions: Mannheimia haemolytica strain MH 6374, broth-microdilution; unit assumed. An outline of the steps:
as §1

The test system of assay [3] is Mannheimia haemolytica MH 10720 (154, BRD field isolate). Briefly: MIC, broth-microdilution (CLSI VET01-A4), strain MH 10720. Conditions: Mannheimia haemolytica strain MH 10720, broth-microdilution; unit assumed. An outline of the steps:
as §1

In assay [4] the test system is Mannheimia haemolytica MH 12587 (1071, BRD field isolate, macrolide-resistance: erm+, E+). Briefly: MIC, broth-microdilution (CLSI VET01-A4), strain MH 12587. Conditions: Mannheimia haemolytica strain MH 12587, broth-microdilution; unit assumed. In a few lines: as §1
Assay [5] deals with Mannheimia haemolytica MH 13065 (XB0446-6003.9, BRD field isolate). Briefly: MIC, broth-microdilution (CLSI VET01-A4), strain MH 13065. Conditions: Mannheimia haemolytica strain MH 13065, broth-microdilution; unit assumed. In a few lines: as §1
Assay [6] has as its system Mannheimia haemolytica MH 13093 (XB0472-6014.1, BRD field isolate). Briefly: MIC, broth-microdilution (CLSI VET01-A4), strain MH 13093. The note with it: Mannheimia haemolytica strain MH 13093, broth-microdilution; unit assumed. An outline of the steps:
as §1

Assay [7] deals with Pasteurella multocida PM 6267 (P 2225 (L386), reference strain, mouse infection strain). Briefly: MIC, broth-microdilution (CLSI VET01-A4), strain PM 6267. The note with it: Pasteurella multocida strain PM 6267, broth-microdilution; unit assumed. An outline of the steps: as §1
Assay [8] has as its system Pasteurella multocida PM 6391 (ATCC 43137, reference strain). Kind of assay: MIC, broth-microdilution (CLSI VET01-A4), strain PM 6391. Conditions: Pasteurella multocida strain PM 6391, broth-microdilution; unit assumed. An outline of the steps: as §1
For assay [9], the system named is Pasteurella multocida PM 10775 (080130003051, BRD field isolate). Briefly: MIC, broth-microdilution (CLSI VET01-A4), strain PM 10775. Conditions: Pasteurella multocida strain PM 10775, broth-microdilution; unit assumed. An outline of the steps:
as §1

Assay [10] relates to Pasteurella multocida PM 12080 (IV102277-0093, BRD field isolate). Briefly: MIC, broth-microdilution (CLSI VET01-A4), strain PM 12080. Conditions: Pasteurella multocida strain PM 12080, broth-microdilution; unit assumed. An outline of the steps:
as §1

The compound `CSC(C)(C)[C@H](NC(=O)c1ccc(C#Cc2ccc(CNCc3ccnc(Cl)c3)cc2)cc1)C(=O)NO` [Compound 248] had an MIC MH 6357 in assay [1] of 1.6 µg/mL (≈ 2.98 µM). Moreover, in assay [2], the MIC MH 6374 amounted to 1.6 µg/mL (≈ 2.98 µM). Also, the MIC MH 10720 in assay [3] amounted to 0.4 µg/mL (≈ 0.745 µM). The compound also had an MIC MH 12587 in assay [4] of 1.6 µg/mL (≈ 2.98 µM). This compound also registered an MIC MH 13065 in [5] of 1.6 µg/mL (≈ 2.98 µM). Besides, the MIC MH 13093 in assay [6] came out at 1.6 µg/mL (≈ 2.98 µM). The compound also registered an MIC PM 6267 in [7] of 0.4 µg/mL (≈ 0.745 µM). The MIC PM 6391 in [8] came to 0.8 µg/mL (≈ 1.49 µM). For the same compound, the MIC PM 10775 in [9] stood at 0.2 µg/mL (≈ 0.372 µM). In assay [10], this compound showed an MIC PM 12080 of 0.8 µg/mL (≈ 1.49 µM).

In turn, `CSC(C)(C)[C@H](NC(=O)c1ccc(C#Cc2ccc(CNCc3ccccn3)cc2)cc1)C(=O)NO` [Compound 249] came in with an MIC MH 6357 in assay [1] of 0.8 µg/mL (≈ 1.59 µM). The MIC MH 6374 in assay [2] was found to be 1.6 µg/mL (≈ 3.18 µM). For the same compound, the MIC MH 10720 in assay [3] turned out to be 0.2 µg/mL (≈ 0.398 µM). Further, in assay [4], the MIC MH 12587 is 1.6 µg/mL (≈ 3.18 µM). The MIC MH 13065 in assay [5] worked out at 0.8 µg/mL (≈ 1.59 µM). In [6], this compound came in with an MIC MH 13093 of 0.8 µg/mL (≈ 1.59 µM). The same compound showed an MIC PM 6267 in assay [7] of 0.2 µg/mL (≈ 0.398 µM). In addition, the MIC PM 6391 in assay [8] was 0.8 µg/mL (≈ 1.59 µM). In [9], this compound yielded an MIC PM 10775 of at most 0.1 µg/mL. In assay [10], this compound displayed an MIC PM 12080 of 0.4 µg/mL (≈ 0.796 µM).

Turning to `CSC(C)(C)[C@H](NC(=O)c1ccc(C#Cc2ccc(CNCc3ccco3)cc2)cc1)C(=O)NO` [Compound 250], in assay [1], the MIC MH 6357 was found to be 0.4 µg/mL (≈ 0.814 µM). Besides, the MIC MH 6374 in assay [2] is 0.8 µg/mL (≈ 1.63 µM). Moreover, the MIC MH 10720 in [3] is at most 0.1 µg/mL. For the same compound, the MIC MH 12587 in [4] was 0.8 µg/mL (≈ 1.63 µM). Also, in assay [5], the MIC MH 13065 was 0.4 µg/mL (≈ 0.814 µM). Further, in assay [6], the MIC MH 13093 was 0.4 µg/mL (≈ 0.814 µM). The compound also yielded an MIC PM 6267 in [7] of at most 0.1 µg/mL. The MIC PM 6391 in assay [8] is 0.2 µg/mL (≈ 0.407 µM). For the same compound, the MIC PM 10775 in assay [9] was at most 0.1 µg/mL. Further, the MIC PM 12080 in assay [10] was at most 0.1 µg/mL.

In assay [1], `CSC(C)(C)[C@H](NC(=O)c1ccc(C#Cc2ccc(CNCc3cccs3)cc2)cc1)C(=O)NO` [Compound 251] came in with an MIC MH 6357 of 0.8 µg/mL (≈ 1.58 µM). The MIC MH 6374 in [2] is 0.8 µg/mL (≈ 1.58 µM). In addition, the MIC MH 10720 in assay [3] is at most 0.1 µg/mL. This compound gave an MIC MH 12587 in assay [4] of 1.6 µg/mL (≈ 3.15 µM). Also, the MIC MH 13065 in [5] amounted to 0.8 µg/mL (≈ 1.58 µM). In addition, the MIC MH 13093 in [6] amounted to 0.8 µg/mL (≈ 1.58 µM). Moreover, the MIC PM 6267 in [7] was at most 0.1 µg/mL. Also, the MIC PM 6391 in assay [8] worked out at 0.2 µg/mL (≈ 0.394 µM). For the same compound, the MIC PM 10775 in [9] was at most 0.1 µg/mL. Moreover, the MIC PM 12080 in [10] was at most 0.1 µg/mL.

As for `CSC(C)(C)[C@H](NC(=O)c1ccc(C#Cc2ccc(CNCc3ccc(C)cc3)cc2)cc1)C(=O)NO` [Compound 252], the MIC MH 6357 in assay [1] is 1.6 µg/mL (≈ 3.1 µM). In assay [2], this compound showed an MIC MH 6374 of 3.1 µg/mL (≈ 6.01 µM). In assay [3], this compound returned an MIC MH 10720 of 0.4 µg/mL (≈ 0.776 µM). Also, the MIC MH 12587 in assay [4] amounted to 3.1 µg/mL (≈ 6.01 µM). For the same compound, the MIC MH 13065 in assay [5] was 1.6 µg/mL (≈ 3.1 µM). The compound further had an MIC MH 13093 in [6] of 1.6 µg/mL (≈ 3.1 µM). Also, the MIC PM 6267 in [7] is 0.4 µg/mL (≈ 0.776 µM). Moreover, the MIC PM 6391 in [8] worked out at 0.8 µg/mL (≈ 1.55 µM). This compound returned an MIC PM 10775 in assay [9] of 0.4 µg/mL (≈ 0.776 µM). Moreover, the MIC PM 12080 in [10] is 0.8 µg/mL (≈ 1.55 µM).

In turn, `CSC(C)(C)[C@H](NC(=O)c1ccc(C#Cc2ccc(CNCC3CCCO3)cc2)cc1)C(=O)NO` (some centres unmarked) [Compound 253] returned an MIC MH 6357 in [1] of 3.1 µg/mL (≈ 6.25 µM). For the same compound, the MIC MH 6374 in [2] is 3.1 µg/mL (≈ 6.25 µM). In assay [3], the MIC MH 10720 worked out at 0.8 µg/mL (≈ 1.61 µM). For the same compound, the MIC MH 12587 in [4] amounted to 3.1 µg/mL (≈ 6.25 µM). Moreover, the MIC MH 13065 in assay [5] was 1.6 µg/mL (≈ 3.23 µM). In addition, the MIC MH 13093 in assay [6] was 3.1 µg/mL (≈ 6.25 µM). For the same compound, the MIC PM 6267 in assay [7] is at most 0.1 µg/mL. The compound also yielded an MIC PM 6391 in [8] of 0.4 µg/mL (≈ 0.807 µM). Moreover, in [9], the MIC PM 10775 is at most 0.1 µg/mL. Besides, the MIC PM 12080 in assay [10] worked out at 0.4 µg/mL (≈ 0.807 µM).

`CSC(C)(C)[C@H](NC(=O)c1ccc(C#Cc2ccc(CNCc3nccs3)cc2)cc1)C(=O)NO` [Compound 254]: the MIC MH 6357 in [1] amounted to 0.8 µg/mL (≈ 1.57 µM). This compound also returned an MIC MH 6374 in assay [2] of 1.6 µg/mL (≈ 3.15 µM). The compound further returned an MIC MH 10720 in assay [3] of 0.2 µg/mL (≈ 0.393 µM). In addition, the MIC MH 12587 in assay [4] was determined as 1.6 µg/mL (≈ 3.15 µM). Besides, in [5], the MIC MH 13065 was determined as 0.8 µg/mL (≈ 1.57 µM). The same compound displayed an MIC MH 13093 in [6] of 0.8 µg/mL (≈ 1.57 µM). The compound also gave an MIC PM 6267 in assay [7] of at most 0.1 µg/mL. This compound also registered an MIC PM 6391 in [8] of 0.4 µg/mL (≈ 0.786 µM). In assay [9], this compound yielded an MIC PM 10775 of at most 0.1 µg/mL. The MIC PM 12080 in assay [10] is at most 0.1 µg/mL.

For `COCCNCc1ccc(C#Cc2ccc(C(=O)N[C@H](C(=O)NO)C(C)(C)S(C)(=O)=O)cc2)cc1` [Compound 257], the MIC MH 6357 in [1] was 3.1 µg/mL (≈ 6.18 µM). In addition, in assay [2], the MIC MH 6374 was 1.6 µg/mL (≈ 3.19 µM). This compound also returned an MIC MH 10720 in [3] of 0.4 µg/mL (≈ 0.797 µM). The MIC MH 12587 in assay [4] is 3.1 µg/mL (≈ 6.18 µM). Moreover, the MIC MH 13065 in [5] came out at 1.6 µg/mL (≈ 3.19 µM). In [6], this compound registered an MIC MH 13093 of 1.6 µg/mL (≈ 3.19 µM). The MIC PM 6267 in assay [7] was at most 0.1 µg/mL. In assay [8], the MIC PM 6391 came out at 0.2 µg/mL (≈ 0.399 µM). Further, the MIC PM 10775 in assay [9] was at most 0.1 µg/mL. In assay [10], this compound returned an MIC PM 12080 of at most 0.1 µg/mL.
